Experimental data as given in publication PMC5442318, “Hundreds of dual-stage antimalarial molecules discovered by a functional gametocyte screen” (Nature Communications, 2017).
Like-named read-outs stand apart in the source and are kept apart here.

Assays:
[1] = tested on: P. falciparum female gametes; experiment: Pf FGAA with compounds added 30 min after triggering gametocyte activation (gamete-targeting); assay type: cell-based, Plasmodium falciparum NF54; conditions: 0h incubation time
[2] = tested on: P. falciparum asexual blood stages; conditions: cited from earlier work; for IC50: read-out: Pf Asexual blood stages XC50
[3] = tested on: P. falciparum stages IV–V gametocytes; experiment: Gametocytocidal ATP-depletion assay (gametocyte ATP bioluminescence); assay type: cell-based, Plasmodium falciparum; conditions: for inhibition at 2 µM: Plasmodium falciparum, mean
How it was run: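 Read-out is luciferase luminescence of parasite ATP (BacTiter-Glo), standing in for viability. Double-purified mature stage IV–V gametocytes, 12,500 per well, were exposed 48 h at 37 °C in low-O2 gas; screening concentration 2 μM.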

HepG2 cells = experiment: HepG2 cytotoxicity assay; assay type: cell-based
How it was run: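 Luminescent read-out (CellTiter-Glo) taken 10 min after reagent addition at RT; plates and reagent pre-equilibrated 30 min at RT.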

[4] = tested on: P. falciparum stage V female gametocytes; experiment: P. falciparum female gametocyte activation assay (Pf FGAA), 24 h or 48 h preincubation, Pfs25 expression readout; assay type: cell-based, Plasmodium falciparum NF54; parameters: key to Biological profile: 49 compounds that were only active with a 48 h exposure (designated as slow-acting); 29 compounds additionally showed activity with only 24 h exposure (designated as fast-acting); when the compounds were added 30 min after triggering gametocyte activation, 12 compounds prevented cell surface expression of Pfs25 (designated as gamete-targeting); conditions: for Pf FGAA classification: SLOW / FAST / GAMETE from activity at 48h, 24h, 0h incubation
How it was run: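 Female activation, triggered by xanthurenic acid and cooling, was scored by imaging Cy3-labelled anti-Pfs25 female gametes after 24 h at 26 °C. Beforehand, purified NF54 stage V gametocytes had been incubated with compound for either 24 h or 48 h (37 °C, 3% O2). Values are pIC50 from full-curve regression.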

[5] = TCAMS data, ref 1 (Gamo et al., 2010)
[6] = TCAMS data, ref 1 (Gamo, F. J. et al., Nature 465, 305-310, 2010)
[7] = 24h incubation time, read-out: Pf FGAA IC50 (µM) 24h
[8] = mean, read-out: Gametocytes mean Pf FGAA IC50
[9] = TCAMS asexual blood stage data, ref 1 (Gamo, F. J. et al., Nature 465, 305-310, 2010)
[10] = HepG2 TOX50 versus Pf FGAA IC50
[11] = Plasmodium falciparum, 24h incubation time, read-out: Pf FGAA IC50 (µM) 24h
[12] = Plasmodium falciparum, P. falciparum female gametocytes, mean, read-out: Gametocytes mean Pf FGAA IC50
[13] = P. falciparum female gametocytes, mean, read-out: Gametocytes mean Pf FGAA IC50

Structure (SMILES)	IC50 [1] [µM]	IC50 [2, 5] [nM]	Pf Asexual stages XC50 [2, 6] [nM]	Gametocytes mean ATP inhibition at 2µM (%) [3] [%]	HepG2 cells mean TOX50 (HepG2 cells) [µM]	IC50 [4, 7] [µM]	Pf FGAA classification [4]	IC50 [4, 8] [µM]	IC50 [2, 9] [nM]	HepG2 cells mean TOX50 (HepG2 cells; HepG2 cells) [µM]	also measured
CN1CCN(CCCNCc2ccccc2-c2cccc(CNCc3ccc4c(c3)OCO4)c2)CC1.O=C(O)C(F)(F)F [TCMDC-140476]	> 20	790	1070	-1.87	1.51	5.7	SLOW	1.64			
CN1CCC(N2CCC(Oc3cccc(C(=O)NCCCC4CCCC4)c3)CC2)CC1 [TCMDC-124677]			230				SLOW		840	4.90	IC50 ([1]; Plasmodium falciparum): > 20 µM; inhibition at 2 µM [3]: -0.79%; Selectivity ratio (HepG2 cells; [10]): 3.34; IC50 [4, 11]: 3.87 µM; IC50 [4, 12]: 1.47 µM
CNCCCNCc1ccc(-c2ccc(F)c(Cl)c2)o1.Cl [TCMDC-125237]	> 20		750			1.57	FAST		750	10.60	Gametocytes mean ATP inhibition at 2µM [3]: -1.51%; IC50 [4, 13]: 1.87 µM
O=C(c1ccc([N+](=O)[O-])o1)N1CCN(c2nc3c(Cl)cccc3s2)CC1 [TCMDC-124316]			980				FAST		980	41.96	IC50 ([1]; Plasmodium falciparum): > 20 µM; inhibition at 2 µM [3]: 0.49%; Selectivity ratio (HepG2 cells; [10]): 38.14; IC50 [4, 11]: 1.38 µM; IC50 [4, 12]: 1.1 µM
Cc1ccc(C(C(=O)Nc2ccc(N3CCNCC3)c(Cl)c2)c2ccccc2)cc1 (stereo not drawn) [TCMDC-134292]	> 20		840			17	SLOW		840	11.89	Gametocytes mean ATP inhibition at 2µM [3]: 19.42%; IC50 [4, 13]: 0.66 µM
N#Cc1ccc(Cn2ccc3c4c(N)nc(N)nc4ccc32)cc1 [TCMDC-137820]	8.15	3	3	-6.11	<0.0017	1.91	FAST				HepG2 cells TOX50 (HepG2 cells; HepG2 cells): <0.0017 µM; Biological profile ([4]; Pf FGAA with 48 h, 24 h or post-activation addition, active = IC50 below 2 μM): fast-acting; IC50 ([4]; stage V gametocytes, 48 h exposure, read-out: PfFGAA IC50): 1.06 µM
Clc1ccc(Nc2nc(NCc3ccccc3)nc(N/N=C/c3ccccn3)n2)cc1 [TCMDC-138557]		780	780		13.96		FAST				IC50 ([1]; Plasmodium falciparum): 2.98 µM; inhibition at 2 µM [3]: 35.7%; Selectivity ratio (HepG2 cells; HepG2 TOX50 vs Pf FGAA IC50): 53.35; IC50 [4, 11]: 0.4 µM; IC50 ([4]; Plasmodium falciparum, mean, read-out: Gametocytes mean Pf FGAA IC50): 0.26 µM
CN1CCN(c2cc3c(cc2Cl)CCN3C(=O)Nc2ccc(NC(=O)c3ccc(C(F)(F)F)cc3)cc2)CC1.Cl [TCMDC-139270]	> 20	510	1100	1.67	3.99	1.54	FAST	0.69			
COc1cccc(CCNC(C)Cc2ccc(OCCCCOc3ccccc3)cc2)c1 (stereo not drawn) [TCMDC-140020]	> 20	740	740	8.01	1.46	3.72	SLOW	1.51			
O=C(Nc1ccc(-c2ccccc2)c(OCCN2CCNCC2)c1)c1ccc(-c2ccc(Cl)cc2)cc1 [TCMDC-138818]	> 20	780	840	1.63	4.95	1.75	FAST	1.38			
CCn1c(-c2nonc2N)nc2c(-c3cccc(NC(=O)Nc4ccc5c(c4)CCC5)c3)ncc(OCCCN)c21.O=C(O)C(F)(F)F [TCMDC-136191]	> 20	780	780	-19.55	7.42	6.46	SLOW	1.03			
